According to ChEMBL document CHEMBL4651402, “Screening of ~5500 FDA-approved drugs and clinical candidates for anti-SARS-CoV-2 activity” (2021):
Peptide text beside a SMILES is read from it.

Tested on: SARS-CoV-2
Assay: microbe, parasite or virus in culture
Conditions: Severe acute respiratory syndrome coronavirus 2, Vero C1008, 48 h

Compound	IC50 [µM]	IC50 (read-out: pIC50 (converted)) [µM]
CN1CCN(CCOc2cc(OC3CCOCC3)c3c(Nc4c(Cl)ccc5c4OCO5)ncnc3c2)CC1 [SARACATINIB]	> 20	> 20
COc1cc(OC)c(/C=C/S(=O)(=O)Cc2ccc(OC)c(NCC(=O)O)c2)c(OC)c1 [RIGOSERTIB]	> 20	> 20
C=C1[C@H](n2ccc(N)nc2=O)O[C@H](CO)[C@H]1O	> 20	> 20
CC1(C)CN(C(=O)c2ccc(-c3cccc4nc(NC(=O)C5CC5)nn34)cc2)C1 [SOLCITINIB]	> 20	> 20
CC(=O)Nc1cccc(-n2c(=O)n(C3CC3)c(=O)c3c(Nc4ccc(I)cc4F)n(C)c(=O)c(C)c32)c1 [TRAMETINIB]	> 20	> 20
CCN(CC)CC#CCOC(=O)[C@@](O)(c1ccccc1)C1CCCCC1 [ESOXYBUTYNIN]	> 20	> 20
Cc1ccccc1C(=O)Nc1ccc(C(=O)N2CCCC(N(C)C)c3ccccc32)cc1 (centres undefined) [MOZAVAPTAN]	> 20	> 20
COc1ccccc1OCC(O)CO (centres undefined) [GUAIFENESIN]	> 20	> 20
O=C(O)C(=O)Cc1c[nH]c2ccccc12	> 20	> 20
CCN(CC)CC#CCOC(=O)C(O)(c1ccccc1)C1CCCCC1 (centres undefined) [OXYBUTYNIN]	> 20	> 20
CCCCCCCC(=O)O [OCTANOIC ACID]	> 20	> 20
C=CCN1CC[C@]23CCCCC2[C@H]1Cc1ccc(O)cc13 (some centres undefined)	> 20	> 20
CCOC(=O)C(COC(=O)Cc1ccc(NC(=O)c2ccccc2-c2ccc(C(F)(F)F)cc2)c(C(=O)N(C)C)c1)(C(=O)OCC)c1ccccc1 [GRANOTAPIDE]	> 20	> 20
O=C(/C=C\n1cnc(-c2cc(C(F)(F)F)cc(C(F)(F)F)c2)n1)NNc1cnccn1 [SELINEXOR]	> 20	> 20
Nc1cccc2c1C(=O)N(C1CCC(=O)NC1=O)C2=O (centres undefined) [POMALIDOMIDE]	> 20	> 20
Cc1ccc2c(c1)c1c(n2CCc2ccc(C)nc2)CCN(C)C1 [LATREPIRDINE]	> 20	> 20
O=C1c2c(O)ccc(O)c2C(=O)c2c(NCCNCCO)ccc(NCCNCCO)c21 [MITOXANTRONE]	> 20	> 20
CC(C)(S)[C@@H](N)C(=O)O [PENICILLAMINE]	> 20	> 20
CC(C)C(N)C(=O)NC(Cc1ccc(O)cc1)C(=O)O (stereo not drawn) (H-Val-Tyr-OH; configuration not given here)	> 20	> 20
C[N+](C)(C)CCCCCCCCCC[N+](C)(C)C [DECAMETHONIUM]	> 20	> 20
CCNC(=O)C[C@H]1N=C(c2ccc(Cl)cc2)c2cc(OC)ccc2-n2c(C)nnc21	> 20	> 20
Cc1nc(C)c(Cl)c(O)c1Cl [CLOPIDOL]	> 20	> 20
CC(Oc1ccccc1)C(=O)N[C@@H]1C(=O)N2[C@@H]1SC(C)(C)[C@@H]2C(=O)O (some centres undefined) [PHENETHICILLIN]	> 20	> 20
CN1C(=O)NC(=O)C(C)(C2=CCCCC2)C1=O (centres undefined) [HEXOBARBITAL]	> 20	> 20

Compound	IC50 [µM]	IC50 (read-out: pIC50 (converted)) [µM]
O=C(O)C1N[C@H](C(=O)O)CS1 (some centres undefined)	> 20	> 20
O[C@H](CNC[C@@H](O)[C@H]1CCc2cc(F)ccc2O1)[C@@H]1CCc2cc(F)ccc2O1	> 20	> 20
C=C(C)CC1(CC)C(=O)NC(=S)NC1=O	> 20	> 20
CCN(CC)C(=O)c1ccc(O)c(OC)c1	> 20	> 20
CC(C)CC(N)=O [ISOVALERAMIDE]	> 20	> 20
COc1cc([C@@H]2Oc3cc([C@H]4Oc5cc(O)cc(O)c5C(=O)[C@@H]4O)ccc3O[C@H]2CO)ccc1O [SILYBIN B]	> 20	> 20
NC(=O)c1ncn([C@@H]2O[C@H](CO)[C@@H](O)[C@H]2O)n1 [RIBAVIRIN]	> 50.1	> 50.1
Nc1nc(N)nc(NC2CC2)n1 [CYROMAZINE]	> 20	> 20
CC(=O)OCCN1CCN(CCCN2c3ccccc3Sc3ccc(Cl)cc32)CC1 [THIOPROPAZATE]	> 20	> 20
CCC(=O)OCC(=O)[C@@]1(OC(=O)CC)[C@@H](C)C[C@H]2[C@@H]3CCC4=CC(=O)C=C[C@]4(C)[C@@]3(F)[C@@H](O)C[C@@]21C [BETAMETHASONE DIPROPIONATE]	> 20	> 20
O=C1NCCN1c1ncc([N+](=O)[O-])s1 [NIRIDAZOLE]	> 20	> 20
CC(C)(C)c1ccc(C(=O)CCCN2CCC(OC(c3ccccc3)c3ccccc3)CC2)cc1 [EBASTINE]	> 20	> 20
O=C(NCCc1ccc(O)c(O)c1)C12CC3CC(CC(C3)C1)C2 [DOPAMANTINE]	> 20	> 20
OC(CCN1CCCCC1)(c1ccccc1)c1ccccc1 [PRIDINOL]	> 20	> 20
NC1(C(=O)N[C@@H](CCO)c2ccc(Cl)cc2)CCN(c2nc[nH]c3nccc2-3)CC1 [CAPIVASERTIB]	> 20	> 20
CNS(=O)(=O)CCc1ccc2[nH]cc(C3CCN(C)CC3)c2c1	> 20	> 20
OC1CN(CCCOCCc2ccc3sccc3c2)C1 [T-817]	> 20	> 20
CCOC(=O)[C@H](C)NP(=O)(COCCn1cnc2c(NC3CC3)nc(N)nc21)N[C@@H](C)C(=O)OCC [RABACFOSADINE]	> 20	> 20
Clc1cnccn1	> 20	> 20
COC(=O)N[C@H](C(=O)N[C@@H](Cc1ccccc1)[C@@H](O)CN(Cc1ccc(-c2ccccn2)cc1)NC(=O)[C@@H](NC(=O)OC)C(C)(C)C)C(C)(C)C [ATAZANAVIR]	> 20	> 20
COc1ccc(CCN(C)CCCC(C#N)(c2ccc(OC)c(OC)c2)C(C)C)cc1OC (centres undefined)	> 20	> 20
Cc1cccc(-c2[nH]c(CNc3ccccc3F)nc2-c2ccc3ncnn3c2)n1 [VACTOSERTIB]	> 20	> 20
CN1C(C)(C)CC(OC(=O)CCC(=O)OC2CC(C)(C)N(C)C(C)(C)C2)CC1(C)C [SUXEMERID]	> 20	> 20
CN(C)Cc1ccc(CSCCNC2=NS(=O)(=O)c3cscc32)o1	> 20	> 20

Compound	IC50 [µM]	IC50 (read-out: pIC50 (converted)) [µM]
CN(C)CCCC1c2ccccc2Nc2ccc(Cl)cc21 (centres undefined) [CLOMACRAN]	> 20	> 20
CNC=O	> 20	> 20
Cc1ccc(S(N)(=O)=O)cc1 [P-TOLUENESULFONAMIDE]	> 20	> 20
Cc1cc2cc3c(C)cc(=O)oc3c(C)c2o1 [TRIOXSALEN]	> 20	> 20
O=C1CN2CCOC2(c2ccccc2Cl)c2cc(Cl)ccc2N1 (centres undefined) [CLOXAZOLAM]	> 20	> 20
CC1NCCOC1c1ccccc1 (centres undefined) [PHENMETRAZINE]	> 20	> 20
Cc1ccc(/C(=C\CN2CCCC2)c2ccccn2)cc1 [TRIPROLIDINE]	> 20	> 20
COC(=O)[C@@H]1[C@H]2C[C@H]3c4[nH]c5ccccc5c4CCN3C[C@@H]2CC[C@@H]1O [YOHIMBINE]	> 20	> 20
CN1CC(=O)N2[C@@H](c3ccc4c(c3)OCO4)c3[nH]c4ccccc4c3C[C@@H]2C1=O	> 20	> 20
C[C@@H](c1ccc2nccn2c1)n1nnc2ncc(-c3cnn(C)c3)nc21 [SAVOLITINIB]	> 20	> 20
CNC(=O)N1CC(Oc2cccc(C(F)(F)F)c2)C1 [FLUZINAMIDE]	> 20	> 20
CC(C)(C)c1cnc(CSc2cnc(NC(=O)C3CCNCC3)s2)o1 [BMS-387032]	> 20	> 20
CCN(CC)C(=O)/C(C#N)=C/c1cc(O)c(O)c([N+](=O)[O-])c1 [ENTACAPONE]	> 20	> 20
CC(=O)OCC(=O)[C@@]1(O)CC[C@H]2[C@@H]3CCC4=CC(=O)CC[C@]4(C)[C@H]3[C@@H](O)C[C@@]21C [HYDROCORTISONE ACETATE]	> 20	> 20
CC[C@@H]1CCN[C@H](C(=O)N[C@H]([C@H]2O[C@H](SC)[C@H](O)[C@@H](O)[C@H]2O)[C@H](C)Cl)C1	> 20	> 20
CCc1c2c(nc3ccc(O)cc13)-c1cc3c(c(=O)n1C2)COC(=O)[C@]3(O)CC [7-ETHYL-10-HYDROXYCAMPTOTHECIN]	> 20	> 20
[2H][C@]1(O)[C@@H](CO)O[C@@H](n2ccc(N)nc2=O)[C@]1(C)O	> 20	> 20
COc1ccc(-c2cc(=O)c3c(O)cc(O[C@@H]4O[C@H](CO[C@H]5O[C@H](C)[C@@H](O)[C@H](O)[C@@H]5O)[C@@H](O)[C@H](O)[C@H]4O)cc3o2)cc1O	> 20	> 20
CC[N+]1(C)CCCC(OC(=O)C(O)(c2ccccc2)c2ccccc2)C1 (centres undefined) [PIPENZOLATE]	> 20	> 20
COc1cccc([C@H]2C[C@@H](N[C@H](C)c3ccccc3)C(=O)N2c2ccc(C(F)(F)F)cc2)c1 [MEPPEP]	> 20	> 20
CCOC(=O)C1=C(COCCN)NC(C)=C(C(=O)OC)C1c1ccccc1Cl (centres undefined) [AMLODIPINE]	> 20	> 20
COc1ccc2c(O[C@H]3C[C@@H]4C(=O)N[C@@]5(C(=O)NS(=O)(=O)C6CC6)C[C@@H]5/C=C\CCCCN(C)C(=O)[C@H]4C3)cc(-c3nc(C(C)C)cs3)nc2c1C (single isomer, unassigned)	> 20	> 20
C[N+]1(C)[C@@H]2C[C@@H](OC(=O)[C@H](CO)c3ccccc3)C[C@H]1[C@@H]1O[C@@H]12 [METHSCOPOLAMINE]	> 20	> 20
COC(=O)C1=CCCN(C)C1 [ARECOLINE]	> 20	> 20
